In PubChem BioAssay AID248 (DTP/NCI, 2004):
“And” between values parts separate entries of the source, which are not always exact repeats. Equal values may be shown once. Toxic doses and inconclusive results are not listed. Rule as the data show it: active = T/C of 150% or more; inactive = T/C below 125%.

Tested on: L1210 leukemia ip in BDF1 mice, survival T/C
Assay: NCI In Vivo Anticancer Drug Screen. Data for tumor model L1210 Leukemia (intraperitoneal) in B6D2F1 (BDF1) mice
Conditions: endpoint: mean survival time, higher = longer survival
Method in brief: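 Antitumor effect is assessed in tumor-bearing animals. Survival in the compound arm is compared with a vehicle-dosed control arm and expressed as their quotient.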

[1] = dose: 50.0 mg/kg/injection, schedule: Q04DX002 (ip), vehicle: saline
[2] = dose: 100.0 mg/kg/injection, schedule: Q01DX009 (ip), vehicle: Klucel (hydroxypropylcellulose) (HPC)
[3] = dose: 200.0 mg/kg/injection, schedule: Q01DX009 (ip), vehicle: Klucel (hydroxypropylcellulose) (HPC)
[4] = dose: 400.0 mg/kg/injection, schedule: Q01DX009 (ip), vehicle: Klucel (hydroxypropylcellulose) (HPC)
[5] = dose: 100.0 mg/kg/injection, schedule: Q04DX003 (ip), vehicle: Klucel (hydroxypropylcellulose) (HPC)
[6] = dose: 200.0 mg/kg/injection, schedule: Q04DX003 (ip), vehicle: Klucel (hydroxypropylcellulose) (HPC)
[7] = dose: 400.0 mg/kg/injection, schedule: Q04DX003 (ip), vehicle: Klucel (hydroxypropylcellulose) (HPC)
[8] = dose: 25.0 mg/kg/injection, schedule: Q01DX009 (ip), vehicle: Klucel (hydroxypropylcellulose) (HPC)
[9] = dose: 25.0 mg/kg/injection, schedule: Q04DX003 (ip), vehicle: Klucel (hydroxypropylcellulose) (HPC)
[10] = dose: 50.0 mg/kg/injection, schedule: Q04DX003 (ip), vehicle: Klucel (hydroxypropylcellulose) (HPC)
[11] = dose: 75.0 mg/kg/injection, schedule: Q01DX001 (ip), vehicle: saline
[12] = dose: 150.0 mg/kg/injection, schedule: Q01DX001 (ip), vehicle: saline
[13] = dose: 100.0 mg/kg/injection, schedule: Q01DX001 (ip), vehicle: Klucel (hydroxypropylcellulose) (HPC)
[14] = dose: 200.0 mg/kg/injection, schedule: Q01DX001 (ip), vehicle: Klucel (hydroxypropylcellulose) (HPC)
[15] = dose: 400.0 mg/kg/injection, schedule: Q01DX001 (ip), vehicle: Klucel (hydroxypropylcellulose) (HPC)
[16] = dose: 100.0 mg/kg/injection, schedule: Q01DX009 (ip), vehicle: saline
[17] = dose: 200.0 mg/kg/injection, schedule: Q01DX009 (ip), vehicle: saline
[18] = dose: 100.0 mg/kg/injection, schedule: Q04DX003 (ip), vehicle: saline with Tween-80

Measured: T/C

Cc1cccc2c(=O)c(C(=O)O)cn(C)c12
inactive: [1] 107 % of control | dose: 100.0 mg/kg/injection, schedule: Q04DX002 (ip), vehicle: saline 107 % of control | dose: 200.0 mg/kg/injection, schedule: Q04DX002 (ip), vehicle: saline 107 % of control

O=C(NCN1C(=O)c2ccccc2C1=O)NCN1C(=O)c2ccccc2C1=O
inactive: [2] 95 % of control | [3] 102 % of control | [4] 92 % of control

COc1ccc(C2C(C(=O)N3CCN(C)CC3)C2c2ccc(OC)cc2)cc1 (stereo unspecified)
inactive: dose: 12.5 mg/kg/injection, schedule: Q04DX002 (ip), vehicle: saline 102 % of control | dose: 25.0 mg/kg/injection, schedule: Q04DX002 (ip), vehicle: saline 102 % of control | [1] 102 % of control

CSc1cccc(NC(=O)NCCCl)c1
inactive: [5] 104 % of control | [6] 103 % of control | [7] 93 % of control

CC1(C)NC(=O)C(/C=C/c2ccccc2)O1 (stereo unspecified)
inactive: [8] 102 % of control | [9] 97 % of control | dose: 50.0 mg/kg/injection, schedule: Q01DX009 (ip), vehicle: Klucel (hydroxypropylcellulose) (HPC) 100 % of control | [10] 95 % of control | [2] 89 % of control | [5] 97 % of control | [6] 92 % of control | [7] 101 % of control

O=C(O)/C=C\c1c[nH]c2ccccc12 (tested in a mixture with another compound)
inactive: [11] 104 % of control | [12] 105 % of control | dose: 300.0 mg/kg/injection, schedule: Q01DX001 (ip), vehicle: saline 110 % of control

O=C(Nc1ccc([N+](=O)[O-])cn1)Nc1ccccc1F
inactive: [13] 92 % of control | [2] 101 % of control and 90 % of control | [5] 99 % of control | [14] 89 % of control | [3] 100 % of control and 87 % of control | [6] 105 % of control | [15] 92 % of control | [4] 101 % of control and 90 % of control | [7] 99 % of control

CCOC(=O)C1=NN(c2ccccc2)C(=O)C1N=Nc1ccc(S(=O)(=O)Nc2nnc(C)s2)cc1 (stereo unspecified)
inactive: dose: 100.0 mg/kg/injection, schedule: Q01DX001 (ip), vehicle: saline 110 % of control | dose: 200.0 mg/kg/injection, schedule: Q01DX001 (ip), vehicle: saline 105 % of control | dose: 400.0 mg/kg/injection, schedule: Q01DX001 (ip), vehicle: saline 98 % of control

O=S(=O)(O)c1ccccc1/C=N\N=C\c1ccccc1S(=O)(=O)O
inactive: [16] 107 % of control | dose: 100.0 mg/kg/injection, schedule: Q04DX003 (ip), vehicle: saline 107 % of control | [17] 112 % of control | dose: 200.0 mg/kg/injection, schedule: Q04DX003 (ip), vehicle: saline 107 % of control | dose: 265.0 mg/kg/injection, schedule: Q04DX003 (ip), vehicle: saline 107 % of control | dose: 400.0 mg/kg/injection, schedule: Q01DX009 (ip), vehicle: saline 105 % of control | dose: 400.0 mg/kg/injection, schedule: Q04DX003 (ip), vehicle: saline 104 % of control | dose: 600.0 mg/kg/injection, schedule: Q04DX003 (ip), vehicle: saline 93 % of control

O=C(O)CC(CS(=O)O)C(=O)O (stereo unspecified)
inactive: dose: 100.0 mg/kg/injection, schedule: Q01DX001 (ip), vehicle: saline with Tween-80 91 % of control

COC(=O)c1ccc(-c2c3ccc(=O)cc-3oc3cc(O)ccc23)c(C(=O)OC)c1
inactive: dose: 50.0 mg/kg/injection, schedule: Q04DX003 (ip), vehicle: gum acacia 102 % of control | dose: 100.0 mg/kg/injection, schedule: Q04DX003 (ip), vehicle: gum acacia 98 % of control | dose: 200.0 mg/kg/injection, schedule: Q04DX003 (ip), vehicle: gum acacia 102 % of control | dose: 400.0 mg/kg/injection, schedule: Q04DX003 (ip), vehicle: gum acacia 95 % of control

C[CH2][Sn]1([CH2]C)[O]OC(c2ccccc2)[O]1 (stereo unspecified)
inactive: dose: 0.78 mg/kg/injection, schedule: Q01DX009 (ip), vehicle: saline with Tween-80 101 % of control and 102 % of control | dose: 1.56 mg/kg/injection, schedule: Q01DX009 (ip), vehicle: saline with Tween-80 101 % of control and 110 % of control | dose: 3.12 mg/kg/injection, schedule: Q01DX009 (ip), vehicle: saline with Tween-80 105 % of control and 122 % of control | dose: 6.25 mg/kg/injection, schedule: Q01DX009 (ip), vehicle: saline with Tween-80 100 % of control | dose: 6.25 mg/kg/injection, schedule: Q04DX002 (ip), vehicle: saline with Tween-80 94 % of control | dose: 12.5 mg/kg/injection, schedule: Q01DX009 (ip), vehicle: saline with Tween-80 114 % of control and 121 % of control | dose: 12.5 mg/kg/injection, schedule: Q04DX002 (ip), vehicle: saline with Tween-80 96 % of control | dose: 25.0 mg/kg/injection, schedule: Q01DX009 (ip), vehicle: saline with Tween-80 91 % of control

C=CCCCCCCCCC(=O)NCCN1CCOCC1
inactive: [18] 101 % of control

CC1(C)CSCC(C)(C)C(=O)C1=O
inactive: dose: 50.0 mg/kg/injection, schedule: Q04DX002 (ip), vehicle: saline with Tween-80 100 % of control | dose: 100.0 mg/kg/injection, schedule: Q04DX002 (ip), vehicle: saline with Tween-80 109 % of control | dose: 200.0 mg/kg/injection, schedule: Q04DX002 (ip), vehicle: saline with Tween-80 103 % of control

NC(N)=NC(N)=Nc1ccccc1CS
inactive: [11] 101 % of control | [12] 102 % of control

CN(C)C(C#N)c1c[nH]c2ccccc12 (stereo unspecified)
inactive: dose: 12.5 mg/kg/injection, schedule: Q01DX009 (ip), vehicle: Klucel (hydroxypropylcellulose) (HPC) 87 % of control | dose: 12.5 mg/kg/injection, schedule: Q04DX003 (ip), vehicle: Klucel (hydroxypropylcellulose) (HPC) 97 % of control | [8] 97 % of control | [9] 97 % of control | [10] 94 % of control

CC(C)(NC(=O)NCCCl)C(=O)O
inactive: [13] 105 % of control | [14] 96 % of control | [15] 94 % of control

O=C(O)COc1ccc(Cl)cc1Cl (tested in a mixture with another compound)
inactive: dose: 25.0 mg/kg/injection, schedule: Q04DX003 (ip), vehicle: saline 102 % of control | dose: 50.0 mg/kg/injection, schedule: Q04DX003 (ip), vehicle: saline 98 % of control | dose: 100.0 mg/kg/injection, schedule: Q01DX001 (ip), vehicle: carboxymethylcellulose (CMC) 93 % of control | dose: 100.0 mg/kg/injection, schedule: Q04DX003 (ip), vehicle: other 90 % of control | dose: 200.0 mg/kg/injection, schedule: Q04DX003 (ip), vehicle: other 95 % of control | dose: 400.0 mg/kg/injection, schedule: Q04DX003 (ip), vehicle: other 115 % of control

O=C(C1=Cc2ccccc2OC1)N1CCN(C(=O)C2=Cc3ccccc3OC2)CC1
inactive: [18] 100 % of control | dose: 200.0 mg/kg/injection, schedule: Q04DX003 (ip), vehicle: saline with Tween-80 97 % of control | dose: 400.0 mg/kg/injection, schedule: Q04DX003 (ip), vehicle: saline with Tween-80 95 % of control

CCn1c(=O)cc(C)c2ccccc21
inactive: dose: 75.0 mg/kg/injection, schedule: Q01DX001 (ip), vehicle: carboxymethylcellulose (CMC) 104 % of control | dose: 150.0 mg/kg/injection, schedule: Q01DX001 (ip), vehicle: carboxymethylcellulose (CMC) 104 % of control | dose: 300.0 mg/kg/injection, schedule: Q01DX001 (ip), vehicle: carboxymethylcellulose (CMC) 96 % of control

Nc1nc2c(ncn2C2OC(COP(=O)(O)O)C(O)C2O)c(=O)[nH]1 (stereo unspecified)
inactive: dose: 100.0 mg/kg/injection, schedule: Q01DX005 (ip), vehicle: saline 100 % of control | [16] 101 % of control | dose: 200.0 mg/kg/injection, schedule: Q01DX005 (ip), vehicle: saline 112 % of control | [17] 95 % of control
